According to patent publication US5994323A (priority 1997, dated 1999):

Assays:
zinc precipitated Aβ [1] = assay: Chelating ability: washing of zinc-aggregated synthetic Aβ on nylon membrane, anti-Aβ 6E10 / ECL; format: biochemical; settings: 10 ng synthetic Aβ aggregated with 25 μM ZnCl; wash with TBS containing 2 μM chelator; 100% for TBS alone
Protocol: Samples of 10 ng synthetic Aβ were placed in microtitre wells and caused to aggregate by the addition of 25 μM ZnCl. The aggregates were then transferred to a 0.2 μm nylon membrane by filtration. […] The membrane was fixed, probed with the anti Aβ monoclonal antibody 6E10 and developed for exposure to ECL-film. The transmittance of the ECL-film was measured and the relative signal strength calculated based on 100% for TBS alone.

[2] = 1H NMR study of the interaction of vitamin B12 with clioquinol glucuronide; format: binding; settings: 2.6 mM vitamin B12 + 10 mM clioquinol glucuronide, buffered water pH 6.5, 20° C.
Protocol: Three different solutions were prepared and their ^1 H NMR spectra were recorded in a DRX 400 MHz spectrophotometer at 20° C. Solution a) contained free vitamin B12 (hydroxycobalamin) in a concentration of 2.6 mM.
In FIGS. 1A-1C the spectra of the three solutions a, b and c are presented for the aromatic region (5.5-9.8 ppm). The differences are quite small but obvious in the expansion shown of FIGS. 2A-2C and FIGS. 3B-3C respectively.

[3] = Solubility in water / aqueous solutions; format: physicochemical
[4] = system: vitamin B12 ([57Co]-cyanocobalamine); assay: Influence of clioquinol on vitamin B12 in vivo: tissue radioactivity after [57Co]-cyanocobalamine injection; settings: mice, clioquinol 50 mg/kg/day injected for three days, then [57Co]-cyanocobalamine, sacrificed after two days, ±SEM
Protocol: After three days, all of the mice were injected with [^57 Co]-cyanocobalamine. After two days, the animals were sacrificed, and the brain, liver and kidney were dissected and counted in a gamma-counter as thousand cpm/g tissue (wet weight)±SEM. The radioactivities in each of the groups are stated in Table 1 below: […]

[5] = Dissolution of clioquinol in n-decane and partition into PBS pH 7.4; format: physicochemical
Protocol: The resolubilization of amyloid aggregates by clioquinol was studied. […] The undissolved material was allowed to settle. […] 100 ml of the (light yellow) supernatant was agitated together with 100 ml of PBS pH 7.4 and the phases allowed to separate. The PBS (lower phase) was collected and filtered to remove the residue which formed at the phase interface upon extraction with the organic solvent.

Aβ = assay: Resolubilization of amyloid aggregates in Alzheimer's disease brain homogenates (Western blot of supernatants); format: biochemical, human; settings: frontal lobe neocortex, clioquinol/PBS at 100%, 10% and 1% (100%=800 nM)
Protocol: Brain specimens were obtained for which a histopathological diagnosis of Alzheimer's disease was confirmed.
The homogenates were centrifuged at 150,000 xg for thirty minutes and the supernatants collected and held on ice (fraction "S"). The pellets were subjected to an identical homogenization and centrifugation regime and the resulting supernatants again collected (fraction "P").
1 ml of each supernatant was treated with 200 μl of ice cold 10% TCA to precipitate total protein including Aβ. The resulting pellet was washed once with 100% ethanol and resuspended in 100 μl of TBS (tris 20 mM, NaCl 150 mM, pH 7.4).
7.5 μl of sample (S or P) was boiled for 5 min. with an equal volume of tris-tricine sample buffer containing 4% SDS and loaded onto a Novex pre-cast 10-20% tris-tricine gel followed by Western transfer onto nitrocellulose. Signal for Aβ was detected using mAb WO2 (raised against residues 5-16 of Aβ) and visualized using ECL. The sensitivity of the detection system is 5-10 pg. […]

zinc precipitated Aβ [6] = assay: Resolubilization of zinc-aggregated Aβ in TBS; format: biochemical; settings: 2.5 μM Aβ in TBS pH 7.4, 30 μM zinc (43% in solution), then 120 μM clioquinol; 95% soluble before zinc
Protocol: The ability of clioquinol to resolubilize zinc-aggregated Aβ was assessed. A 2.5 μM solution of Aβ in TBS at a pH of 7.4 was prepared. 95% of the Aβ was maintained in a soluble state.

[7] = assumed value; 1:1 mixtures of decane/clioquinol with PBS pH 7.4; cited from earlier work
[8] = injected preparations, dosages of 10-20 mg/kg; cited from earlier work

Compound | Relative signal strength of Aβ remaining on membrane (zinc precipitated Aβ [1]) [%] | Interaction with vitamin B12 (shift of 1H NMR resonances) [2] | Solubility in water / aqueous solutions [3] | Radioactivity in brain ([4]; control 9.4 ± 0.9) | Radioactivity in liver ([4]; control 97 ± 8) | Radioactivity in kidney ([4]; control 895 ± 207) | Fraction of clioquinol dissolved in n-decane ([5]; 5.3 g suspended in 200 ml n-decane) [%] | Concentration of clioquinol in the PBS ([5]; PBS pH 7.4 extract of the n-decane supernatant, calculated from assumed 2% dissolution and partitioning coefficient) [nM] | Solubilization of Aβ from Alzheimer's disease brain homogenate (Aβ) | Soluble Aβ after addition to zinc precipitated Aβ (zinc precipitated Aβ [6]) [%] | Partitioning coefficient with PBS [7] | Concentration in the brain [8] [μl/ml]
O=C(O)CN(CCN(CC(=O)O)CC(=O)O)CC(=O)O [EDTA] | 66 |  |  |  |  |  |  |  |  |  |  | 
COC(=O)[C@H]1O[C@@H](Oc2c(I)cc(Cl)c3cccnc23)[C@H](OC(C)=O)[C@@H](OC(C)=O)[C@@H]1OC(C)=O [clioquinol glucuronide, methyl (5-chloro-7-iodo-quinolyl-2',3',4'tri-O-acetyl-glucopyranosid)uronate] |  | interaction | soluble in water |  |  |  |  |  |  |  |  | 
Oc1c(I)cc(Cl)c2cccnc12 [clioquinol, 5-chloro-7-iodo-8 hydroxyquinoline] |  |  | cannot be dissolved in aqueous solutions | 8.4 ± 1.5 thousand cpm/g tissue (wet wei | 85 ± 21 thousand cpm/g tissue (wet wei | 252 ± 61 thousand cpm/g tissue (wet wei | 2 | 800 | effective in promoting the solubilization of Aβ | 70 | 1/1750 | ~20
